This is an account of results in patent publication US20160205982A1, “LIFE ENHANCING BEVERAGES” (REOXCYN DISCOVERIES GROUP, INC., priority 2013, published 2016).

Assay [1] concerns phosphorylated proteins (extra-nuclear fraction). As to the kind of experiment: Western blot of protein phosphorylation in extra-nuclear fraction of HMVEC-L. To be noted: H2O2 treatment. The class given is cell-based, human. As to the method: (§1) 8. A Western Blot analysis was done on extra-nuclear and intra-nuclear fractions, separated by differential centrifugation, of serum starved HMVEC-L cell cultures exposed to <1% ASEA compared with a positive hydrogen peroxide control to determine phosphorylation events (oxidant action) in the extra-nuclear fraction and NRF2 (antioxidant transcription) in the intra-nuclear fraction at 0, 30, 60, 90 and 120 min. intervals.
(§2) Experimental Methods for Western Blot Validation of NRF2 Nuclear Accumulation: HMVEC-L were treated with 1% ASEA, nuclear extracts were separated through centrifugal differentiation from the extra-nuclear cytosol at 30, 60 and 120 min and subjected to Western Blot analysis for NRF2. In the Western blot experiment the extra-nuclear fraction was probed for phosphorylated proteins using a combination of anti-phospho serine, threonine and tyrosine antibodies. Virtually all cellular processes are regulated by posttranslational modifications and protein phosphorylation is a prevalent mechanism. Observable changes in protein phosphorylation can lead to a mechanistic understanding of the cellular processes perturbed by ASEA and provide a defined endpoint to better define dose-dependent regulation of cell function by ASEA in vitro, as well as provide a potential candidate molecular marker that may be used to provide in vitro-in vivo correlates. […]

The test system of a further assay is NRF2. As to the kind of experiment: Western blot of NRF2 in nuclear extracts of HMVEC-L. As to conditions: H2O2 30 min, positive control. The class given is cell-based, human. As to the method: as §1, §2
On the technique in general: A western blot detects proteins with antibodies after separation by electrophoresis.

Take `OO` [H2O2, Hydrogen peroxide]: the “phosphorylation of the protein detected in extra-nuclear fraction” value in assay [1] is given as “marked increase”. For the same compound, in the assay with NRF2, the “NRF2 levels in nuclear extracts” value was “did not increase”.
